Laboratory results: the supplement of paper PMC13207355

Legend:
Conditions in all cases: exposure time: 72 h
FT3469 [1] = normal neural stem cell line; test: phenotypic distance (Euclidean, principal components) from DMSO controls (arbitrary units); higher = stronger morphological change
E21 [2] = patient-derived glioblastoma stem cells of mesenchymal subtype; test: as above
E28 [3] = patient-derived glioblastoma stem cells of classical subtype; test: as above
E57 [4] = patient-derived glioblastoma stem cells of mesenchymal subtype; test: as above
E13 [5] = patient-derived glioblastoma stem cells of classical subtype; test: as above
E31 [6] = patient-derived glioblastoma stem cells of proneural subtype; test: as above
E34 [7] = patient-derived glioblastoma stem cells of proneural subtype; test: as above
FT3469 [8] = test: surviving fraction (nuclei count normalised to DMSO); higher = more cells surviving (less toxic)
E21 [9] = test: as above
E28 [10] = test: as above
E57 [11] = test: as above
E13 [12] = test: as above
E31 [13] = test: as above
E34 [14] = test: as above
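For phenotypic distance (Euclidean, principal components) from DMSO controls in this document: cell Painting imaging in 384-well plates, CellProfiler features reduced to at least 20 principal components, Euclidean distance versus same-plate DMSO vehicle wells (0.1% v/v), median over six images per well.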
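For surviving fraction (nuclei count normalised to DMSO) in this document: nuclei counted by high-content imaging of Hoechst-stained cells in laminin-coated 384-well plates, relative to 0.1% DMSO vehicle wells, with staurosporine as cell-death control.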

COc1cc2c[n+](C)c3c4cc5c(cc4ccc3c2cc1OC)OCO5 [Nitidine chloride]
Conditions	phenotypic distance	surviving fraction
E13 [5], 4.1 nM	0.679	–
E13 [5], 12.3 nM	2.36	–
E13 [5], 37 nM	0.78	–
E13 [5], 111.1 nM	0.431	–
E13 [5], 333.3 nM	1.36	–
E13 [5], 1000 nM	1.35	–
E13 [5], 3000 nM	4.56	–
E13 [12], 4.1 nM	–	1.02
E13 [12], 12.3 nM	–	0.937
E13 [12], 37 nM	–	1.01
E13 [12], 111.1 nM	–	1.01
E13 [12], 333.3 nM	–	0.836
E13 [12], 1000 nM	–	0.752
E13 [12], 3000 nM	–	0.397
E21 [2], 4.1 nM	0.786	–
E21 [2], 12.3 nM	0.739	–
E21 [2], 37 nM	1.02	–
E21 [2], 111.1 nM	1.99	–
E21 [2], 333.3 nM	3.87	–
E21 [2], 1000 nM	4.46	–
E21 [2], 3000 nM	5.64	–
E21 [9], 4.1 nM	–	0.997
E21 [9], 12.3 nM	–	0.869
E21 [9], 37 nM	–	0.959
E21 [9], 111.1 nM	–	0.703
E21 [9], 333.3 nM	–	0.302
E21 [9], 1000 nM	–	0.295
E21 [9], 3000 nM	–	0.066
E28 [3], 4.1 nM	0.661	–
E28 [3], 12.3 nM	0.746	–
E28 [3], 37 nM	1.02	–
E28 [3], 111.1 nM	1.34	–
E28 [3], 333.3 nM	2.74	–
E28 [3], 1000 nM	2.93	–
E28 [3], 3000 nM	3.24	–
E28 [10], 4.1 nM	–	0.955
E28 [10], 12.3 nM	–	0.92
E28 [10], 37 nM	–	0.878
E28 [10], 111.1 nM	–	0.754
E28 [10], 333.3 nM	–	0.506
E28 [10], 1000 nM	–	0.575
E28 [10], 3000 nM	–	0.216
E31 [6], 4.1 nM	0.468	–
E31 [6], 12.3 nM	0.762	–
E31 [6], 37 nM	0.828	–
E31 [6], 111.1 nM	1.43	–
E31 [6], 333.3 nM	1.85	–
E31 [6], 1000 nM	2.23	–
E31 [6], 3000 nM	3.9	–
E31 [13], 4.1 nM	–	0.905
E31 [13], 12.3 nM	–	1.08
E31 [13], 37 nM	–	0.804
E31 [13], 111.1 nM	–	0.738
E31 [13], 333.3 nM	–	0.582
E31 [13], 1000 nM	–	0.599
E31 [13], 3000 nM	–	0.19
E34 [7], 4.1 nM	0.655	–
E34 [7], 12.3 nM	0.652	–
E34 [7], 37 nM	0.901	–
E34 [7], 111.1 nM	1.63	–
E34 [7], 333.3 nM	1.88	–
E34 [7], 1000 nM	2.46	–
E34 [7], 3000 nM	3.01	–
E34 [14], 4.1 nM	–	1.08
E34 [14], 12.3 nM	–	1.06
E34 [14], 37 nM	–	0.769
E34 [14], 111.1 nM	–	1.08
E34 [14], 333.3 nM	–	0.743
E34 [14], 1000 nM	–	0.706
E34 [14], 3000 nM	–	0.559
E57 [4], 4.1 nM	0.377	–
E57 [4], 12.3 nM	0.436	–
E57 [4], 37 nM	0.309	–
E57 [4], 111.1 nM	0.645	–
E57 [4], 333.3 nM	1.22	–
E57 [4], 1000 nM	1.25	–
E57 [4], 3000 nM	7	–
E57 [11], 4.1 nM	–	0.996
E57 [11], 12.3 nM	–	0.919
E57 [11], 37 nM	–	0.965
E57 [11], 111.1 nM	–	0.946
E57 [11], 333.3 nM	–	0.91
E57 [11], 1000 nM	–	0.923
E57 [11], 3000 nM	–	0.216
FT3469 [1], 4.1 nM	0.874	–
FT3469 [1], 12.3 nM	0.863	–
FT3469 [1], 37 nM	0.732	–
FT3469 [1], 111.1 nM	1.27	–
FT3469 [1], 333.3 nM	2.17	–
FT3469 [1], 1000 nM	2.35	–
FT3469 [1], 3000 nM	2.82	–
FT3469 [8], 4.1 nM	–	0.854
FT3469 [8], 12.3 nM	–	0.86
FT3469 [8], 37 nM	–	0.854
FT3469 [8], 111.1 nM	–	0.752
FT3469 [8], 333.3 nM	–	0.679
FT3469 [8], 1000 nM	–	0.646
FT3469 [8], 3000 nM	–	0.601

Cc1ccc(C(=O)Nc2ccc(CN3CCN(C)CC3)c(C(F)(F)F)c2)cc1C#Cc1cnc2cccnn12 [Ponatinib]
phenotypic distance
Conditions	E13 [5]	E21 [2]	E28 [3]	E31 [6]	E34 [7]	E57 [4]	FT3469 [1]
4.1 nM	1.34	2.02	0.791	0.882	1.37	3.43	1.73
12.3 nM	1.37	5.3	1.19	1.09	1.08	4.1	2.15
37 nM	1.75	1.87	1.3	2.13	1.46	3.63	1.36
111.1 nM	2.38	2.05	1.57	2.63	1.59	3.38	1.58
333.3 nM	2.71	4.01	1.29	2.59	2.93	2.19	2.72
1000 nM	3.02	9.73	2.75	11.1	3.77	4.53	4.78
3000 nM	5.54	9.25	3.32	8.04	5.85	5.68	8.72

CC(C)(C)CC(C)(C)c1ccc(OCCOCC[N+](C)(C)Cc2ccccc2)cc1 [Benzethonium chloride]
phenotypic distance
Conditions	E13 [5]	E21 [2]	E28 [3]	E31 [6]	E34 [7]	E57 [4]	FT3469 [1]
4.11523 nM	0.537	0.773	0.718	0.922	0.73	0.566	0.694
12.34567901 nM	0.594	1.03	0.685	0.452	0.622	0.67	1.16
37.037 nM	0.837	0.654	0.4	0.793	0.82	0.808	0.855
111.1111111 nM	1.05	1	0.716	0.714	0.847	0.566	0.746
333.333 nM	0.65	0.939	0.667	1.42	0.91	0.524	0.802
1000 nM	1.22	1.3	0.382	1.81	1.21	2.04	2.79
3000 nM	4.92	3.86	4.89	12.9	2.98	4.76	2.88
